Measured values: ChEMBL document CHEMBL6121010, “Novel antileukemic compound with sub-micromolar potency against STAT5 addicted myeloid leukemia cells” (Eur J Med Chem, 2025)
Calls of active or inactive are those of the source. The calls are words filed in the database; no cut-off is given here.

Legend:
[1] = system: KU812; test: Downregulation of STAT5A expression in human KU812 cell line by Western blot analysis; type: functional, cell-based
[2] = system: MV4-11; test: Antiproliferative activity against human MV4-11 cells measured after 72 hrs by MTT assay; type: functional, cell-based
[3] = system: K562-IMA[r]; test: Antiproliferative activity against human Imatinib-resistant K562 cells assessed as inhibition of cell growth at 100 nM measured after 72 hrs by MTT assay; type: functional, cell-based
[4] = system: KU812 cell line; test: Antileukemic activity against human KU812 cell line assessed as inhibition of cell growth incubated for 48 hrs by MTT assay; type: functional, cell-based; conditions: KU812, 48 h
[5] = system: K562; test: Antiproliferative activity against human K562 cells measured after 72 hrs by MTT assay; type: functional, cell-based
[6] = system: KCL-22; test: Antiproliferative activity against human KCL-22 cells measured after 72 hrs by MTT assay; type: functional, cell-based
[7] = system: MV4-11; test: Downregulation of STAT5B expression in human MV4-11 cells by Western blot analysis; type: functional, cell-based
[8] = molecular target: T1, Signal transducer and activator of transcription 5A (Homo sapiens) (UniProt P42229); test: Inhibition of STAT5A phosphorylation in human KU812 cell line incubated for 24 hrs by Western blotting analysis; type: cell-based
T1 sequence (whole entry): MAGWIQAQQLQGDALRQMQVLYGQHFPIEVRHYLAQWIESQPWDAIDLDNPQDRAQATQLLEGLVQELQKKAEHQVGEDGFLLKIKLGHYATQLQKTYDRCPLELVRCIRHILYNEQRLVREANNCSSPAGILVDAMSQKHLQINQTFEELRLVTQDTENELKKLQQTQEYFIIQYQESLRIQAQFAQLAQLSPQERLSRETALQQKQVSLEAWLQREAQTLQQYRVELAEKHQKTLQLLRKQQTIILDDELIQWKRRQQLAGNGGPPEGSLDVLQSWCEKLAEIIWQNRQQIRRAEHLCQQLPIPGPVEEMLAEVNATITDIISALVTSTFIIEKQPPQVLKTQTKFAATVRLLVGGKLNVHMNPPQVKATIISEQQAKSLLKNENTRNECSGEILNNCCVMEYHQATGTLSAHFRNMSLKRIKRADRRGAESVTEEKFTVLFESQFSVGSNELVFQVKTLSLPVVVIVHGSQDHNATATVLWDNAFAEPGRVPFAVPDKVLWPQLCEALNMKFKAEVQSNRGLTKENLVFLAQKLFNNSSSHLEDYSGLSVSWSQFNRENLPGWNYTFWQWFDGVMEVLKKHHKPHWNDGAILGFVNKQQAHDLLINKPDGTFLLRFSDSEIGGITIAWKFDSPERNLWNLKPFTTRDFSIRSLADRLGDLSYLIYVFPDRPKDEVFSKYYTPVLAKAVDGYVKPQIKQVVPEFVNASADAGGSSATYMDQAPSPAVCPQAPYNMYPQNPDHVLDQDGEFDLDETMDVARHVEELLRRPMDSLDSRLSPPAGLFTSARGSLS

[9] = system: K562-IMA[r]; test: Downregulation of STAT5B expression in human Imatinib-resistant K562 cells by Western blot analysis; type: functional, cell-based
[10] = system: KU812 cell line; test: Antileukemic activity against human KU812 cell line co-cultured with human HS-27A in presence of Imatinib; type: functional, cell-based
[11] = system: MV4-11; test: Antileukemic activity against human MV4-11 cell line assessed as inhibition of cell growth incubated for 48 hrs by MTT assay; type: functional, cell-based; conditions: MV4-11, 48 h
[12] = Potency index, ratio of Pimozide EC50 to test compound EC50 for antileukemic activity against human MOLM-13 cells assessed as inhibition of cell growth incubated for 48 hrs by MTT assay; type: functional
[13] = Potency index, ratio of Pimozide EC50 to test compound EC50 for antileukemic activity against human K562 cells assessed as inhibition of cell growth incubated for 48 hrs by MTT assay; type: functional
[14] = system: MV4-11; test: Downregulation of STAT5A expression in human MV4-11 cells by Western blot analysis; type: functional, cell-based
[15] = molecular target: T1, Signal transducer and activator of transcription 5A (Homo sapiens); test: Inhibition of STAT5A phosphorylation in human Imatinib-resistant K562 cells up to 5 uM incubated for 24 hrs by Western blotting analysis; type: cell-based
[16] = molecular target: T2, Signal transducer and activator of transcription 5B (Homo sapiens) (UniProt P51692); test: Inhibition of STAT5B phosphorylation in human Imatinib-resistant K562 cells up to 5 uM incubated for 24 hrs by Western blotting analysis; type: cell-based
T2 sequence (whole entry): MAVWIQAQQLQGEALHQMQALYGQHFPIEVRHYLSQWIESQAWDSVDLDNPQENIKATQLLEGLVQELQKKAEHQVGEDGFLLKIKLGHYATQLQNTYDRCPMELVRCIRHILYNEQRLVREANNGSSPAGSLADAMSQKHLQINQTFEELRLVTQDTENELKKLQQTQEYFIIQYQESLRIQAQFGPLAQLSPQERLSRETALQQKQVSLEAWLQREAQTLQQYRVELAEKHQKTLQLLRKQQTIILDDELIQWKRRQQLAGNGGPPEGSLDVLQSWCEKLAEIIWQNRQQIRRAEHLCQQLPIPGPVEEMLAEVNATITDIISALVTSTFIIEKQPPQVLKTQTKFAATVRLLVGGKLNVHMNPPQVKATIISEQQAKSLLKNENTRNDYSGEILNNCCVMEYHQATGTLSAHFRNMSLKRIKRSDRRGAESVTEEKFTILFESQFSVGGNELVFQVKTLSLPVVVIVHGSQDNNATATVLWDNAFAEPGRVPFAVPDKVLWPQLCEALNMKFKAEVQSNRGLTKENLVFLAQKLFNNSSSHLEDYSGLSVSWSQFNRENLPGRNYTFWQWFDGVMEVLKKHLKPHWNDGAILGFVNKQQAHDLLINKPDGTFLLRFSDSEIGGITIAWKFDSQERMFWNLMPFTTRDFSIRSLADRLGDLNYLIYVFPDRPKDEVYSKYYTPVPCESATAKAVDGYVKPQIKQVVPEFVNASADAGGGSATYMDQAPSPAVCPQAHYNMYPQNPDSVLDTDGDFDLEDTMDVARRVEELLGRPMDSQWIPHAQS

[17] = system: MV4-11; test: Antileukemic activity against human MV4-11 cells co-cultured with human HS-27A in presence of Ara-c; type: functional, cell-based
[18] = system: BaF3; test: Downregulation of STAT5B N642H mutant expression in mouse BaF3 cells incubated for 24 hrs by Western blot analysis; type: functional, cell-based; conditions: dose <= 5.0 µM
[19] = Cytotoxicity against Bone marrow cell (unknown origin) assessed as cell viability incubated for 48 hrs by MTT assay; type: toxicity, cell-based; conditions: bone marrow cells (unknown origin)
[20] = molecular target: T2, Signal transducer and activator of transcription 5B (Homo sapiens); test: Inhibition of STAT5B phosphorylation in human KU812 cell line incubated for 24 hrs by Western blotting analysis; type: cell-based
[21] = system: K562; test: Antileukemic activity against human K562 assessed as cell viability incubated for 48 hrs by MTT assay; type: functional, cell-based; conditions: K562, 48 h
[22] = system: MV4-11; test: Potency index, ratio of Pimozide EC50 to test compound EC50 for antileukemic activity against human MV4-11 cells assessed as inhibition of cell growth incubated for 48 hrs by MTT assay; type: functional
[23] = system: MOLM-13; test: Antiproliferative activity against human MOLM-13 cells measured after 72 hrs by MTT assay; type: functional, cell-based
[24] = molecular target: T1, Signal transducer and activator of transcription 5A (Homo sapiens); test: Inhibition of STAT5A phosphorylation in human MV4-11 cells incubated for 24 hrs by Western blotting analysis; type: cell-based
[25] = system: K562-IMA[r]; test: Downregulation of STAT5A expression in human Imatinib-resistant K562 cells by Western blot analysis; type: functional, cell-based
[26] = system: MV4-11; test: Antileukemic activity against human MV4-11 cells co-cultured with human HS-27A in presence of Imatinib; type: functional, cell-based
[27] = system: KU812 cell line; test: Antiproliferative activity against human KU812 cell line measured after 72 hrs by MTT assay; type: functional, cell-based
[28] = system: KCL-22; test: Antileukemic activity against human KCL-22 assessed as cell viability incubated for 48 hrs by MTT assay; type: functional, cell-based; conditions: KCL-22, 48 h
[29] = Cytotoxicity against human HS-27A assessed as cell viability incubated for 48 hrs by MTT assay; type: toxicity, cell-based; conditions: HS-27A cells
[30] = system: KU812 cell line; test: Antileukemic activity against human KU812 cell line co-cultured with human HS-27A in presence of Ara-c; type: functional, cell-based
[31] = system: KU812; test: Downregulation of STAT5B expression in human KU812 cell line by Western blot analysis; type: functional, cell-based
[32] = Potency index, ratio of Pimozide EC50 to test compound EC50 for antileukemic activity against human KU812 cell line assessed as inhibition of cell growth incubated for 48 hrs by MTT assay; type: functional
[33] = system: MOLM-13; test: Antileukemic activity against human MOLM-13 assessed as cell viability incubated for 48 hrs by MTT assay; type: functional, cell-based; conditions: MOLM-13, 48 h
[34] = Potency index, ratio of Pimozide EC50 to test compound EC50 for antileukemic activity against human KCL-22 cells assessed as inhibition of cell growth incubated for 48 hrs by MTT assay; type: functional
[35] = molecular target: T2, Signal transducer and activator of transcription 5B (Homo sapiens); test: Inhibition of STAT5B phosphorylation in human MV4-11 cells incubated for 24 hrs by Western blotting analysis; type: cell-based

inhibition [8]: Active
EC50 [11]: 300 nM
inhibition [15]: Active
inhibition [16]: Active
inhibition [20]: Active
EC50 [21]: 800 nM
inhibition [24]: Active
EC50 [33]: 300 nM
inhibition [35]: Active
Structure (SMILES): CC1(C)CCN(CCOc2ccc3[nH]ccc3c2)c2cccc(-c3cnc(N)nc3)c21
Activity [1]: inactive
Activity [2]: Active
Activity [3]: Active
EC50 [4]: 600 nM
Activity [5]: Active
Activity [6]: Active
Activity [7]: Active
Activity [9]: Active
Activity [10]: Active
Ratio EC50 [12]: 5
Ratio EC50 [13]: 5
Activity [14]: inactive
Activity [17]: Active
Activity [18]: Dose-dependent-effect
EC50 at 48 h [19]: 12000 nM
Ratio EC50 [22]: 5
Activity [23]: Active
Activity [25]: Active
Activity [26]: Active
Activity [27]: Active
EC50 [28]: 500 nM
EC50 at 48 h [29]: 44100 nM
Activity [30]: Active
Activity [31]: Active
Ratio EC50 [32]: 5
Ratio EC50 [34]: 5
